pIC50: −log10 of the molar value.

The target of this experiment is T1, Histone acetyltransferase KAT8 (Homo sapiens, UniProt Q9H7Z6).
T1 sequence (Q9H7Z6 whole entry): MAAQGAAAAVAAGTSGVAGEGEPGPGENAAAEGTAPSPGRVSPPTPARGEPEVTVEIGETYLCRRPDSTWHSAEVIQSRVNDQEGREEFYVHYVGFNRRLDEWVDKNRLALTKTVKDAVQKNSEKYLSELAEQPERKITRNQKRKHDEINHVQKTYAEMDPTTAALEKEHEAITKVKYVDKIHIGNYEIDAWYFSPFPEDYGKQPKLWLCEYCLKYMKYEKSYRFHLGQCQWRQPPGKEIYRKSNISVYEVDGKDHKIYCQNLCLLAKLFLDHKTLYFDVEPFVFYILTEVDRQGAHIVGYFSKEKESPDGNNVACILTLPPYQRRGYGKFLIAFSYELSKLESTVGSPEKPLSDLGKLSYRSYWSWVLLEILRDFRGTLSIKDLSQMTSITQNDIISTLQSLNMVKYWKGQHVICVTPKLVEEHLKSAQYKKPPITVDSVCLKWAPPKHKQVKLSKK
As to the kind of experiment: Inhibition of recombinant N-terminal His6-tagged KAT8 (unknown origin) expressed in Escherichia Coli BL21 DE3 cells assessed as reduction of Co A level using histone H4 substrate after 15 mins by CPM fluorescence assay.

Regarding `CC1=NN(c2ccc(C(=O)O)cc2)C(=O)/C1=C/c1ccc(-c2cc(C)c(C)cc2[N+](=O)[O-])o1`, the pIC50 is < 3.20.

As to `CCCCCCCCCCc1cccc(O)c1C(=O)O`, the pIC50 is 3.91.

Turning to `CCCCCCCCCCCCCCCc1ccc(O)c(C(=O)O)c1`, the pIC50 was 3.58.

In the case of `CCCCCCCCCCc1ccc(O)c(C(=O)O)c1`, the pIC50 was 3.72.

Consider `O=C(O)c1c(O)cccc1CCCCCCCCCCCO`, for which the pIC50 is 3.28.

For `O=C(O)c1c(O)cccc1CCCCCO`, the negative-log IC50 (pIC50) was < 3.20.

For `CCCCCc1ccc(O)c(C(=O)O)c1`, the pIC50 is < 3.20.

Turning to `CCCCCCCSCC(=O)c1ccccc1O`, the pIC50 was < 3.20.

Regarding `CCCCCc1cccc(O)c1C(=O)O` [6-Pentylsalicylic Acid], the pIC50 is < 3.20.
